Like-named read-outs stand apart in the source and are kept apart here.
Assays:
SARS-CoV = conditions: fRhK4 cell line; for EC50 (μg/ml) at 48 hrs / EC50 (μg/ml) at 72 hrs: 10 strains of SARS-CoV, inhibition of cytopathic effect to 50% of control
HIV-1 = conditions: cited from earlier work
[1] = human, in vivo; cited from earlier work
[2] = in vivo, cited from earlier work

## baicalin
SARS-CoV
  EC50 (μg/ml) at 48 hrs: 12.5 to 25 µg/mL
  EC50 (μg/ml) at 72 hrs: 25 to 50 µg/mL
SARS-CoV; listed as baicalin
  EC50 (μg/ml) at 48 hrs: 12.5 to 25 µg/mL
  EC50 (μg/ml) at 72 hrs: 25 to 50 µg/mL
SARS-CoV; selectivity index
  SI = CC50/EC50 at 48 hrs: >8
HIV-1
  Antiviral effect: Inhibition of HIV-1 [Kitamura K et al., “Baicalin: an inhibitor of HIV-1
fRhK4 cell line
  CC50: >100 µg/mL
[1]
  Serum level (after intravenous administration) Cmax: 74
[2]; human, po
  Serum level (after oral administration) Cmax: Cmax = 60 ng/mL (189.8 mg/person, in human). The amount (i.e., 189.8 mg/
[2]; human
  Half life (in humans): ~3 hrs in humans Muto R et al., “The chemical structure of new substance
[2]; po
  Serum concentration after oral dose: 470 ng/mL

From patent publication US7605135B2 (priority 2003, dated 2009)
